Legend:
[1] = system: mouse model of generalised seizure (tonic hind limb extensor convulsions); experiment: Maximal electroshock seizure threshold (MEST) test in the mouse; conditions: 2.5 mg/kg i.p., 30 min post dose
Method: The efficacy of the novel resorcinol according to the compound of Formula I was tested in a mouse model of generalised seizure, the maximal electroshock seizure threshold (MEST) test.
(§1) In the MEST test the ability of a drug to alter the seizure threshold current required to induce hind limb tonic extensor convulsions is measured according to an “up and down” method of shock titration (Kimball et al., 1957). An increase in seizure threshold is indicative of anti-convulsant effect.
(§2) The ability of a test compound to alter the stimulus intensity, expressed as current (mA), required to induce the presence of tonic hind limb extensor convulsions, is assessed in the MEST.
(§3) All animals were weighed at the beginning of the study and randomly assigned to treatment groups based on a mean distribution of body weight across groups.
The first animal within a treatment group was given a shock at the expected or estimated CC50 current. For subsequent animals, the current was lowered or raised depending on the convulsions outcome from the preceding animal, in intervals of 5 mA.
(§4) Data generated from each treatment group were used to calculate the CC50±SEM values for the treatment group.
Vehicle: (5% ethanol, 5% Kolliphor® EL, 90% Saline) was prepared as follows: 2 mL of ethanol, 2 mL of Kolliphor® EL were warmed to 60° C., in 36 mL of saline (1:1:18).
The test compound, described herein as Compound I, is as shown as Formula I. Test compound was administered at 1, 5, 20, 50, 100 and 200 mg/kg (i.p.) in a 1:2:17 ethanol:solutol:0.9% saline formulation.
(§5) The data for each treatment group were recorded as the number of +'s and 0's at each current level employed and this information is then used to calculate the CC50 value (current required for 50% of the animals to show seizure behaviour)±standard error.
(§6) Test compound effects were also calculated as percentage change in CC50 from the vehicle control group.
(§7) Significant difference between drug-treated animals and controls were assessed according to Litchfield and Wilcoxon (1949).

[2] = system: mouse model of generalised seizure (tonic hind limb extensor convulsions); experiment: mini-MEST (maximal electroshock seizure threshold, minimal sample sizes) test in the mouse; conditions: 2.5 mg/kg i.p., 30 min post dose
Method: The maximal electroshock seizure threshold (MEST) test is widely utilized preclinically to evaluate pro- or anti-convulsant properties of test compounds (Loscher et al., 1991).
as §1, §2, §3
The first animal within a treatment group was given a shock at the expected or estimated CC50 current. For subsequent animals, the current was lowered or raised depending on the convulsions outcome from the preceding animal in log scale intervals.
as §4
Vehicle: (5% ethanol, 10% solutol in 85% Saline) was prepared as follows: 1 mL of ethanol, 2 mL of solutol were warmed to 60° C., in 17 mL of saline (1:2:17).
The test compound, described herein as Compound I, is as shown as Formula I. Test compound was administered at 50 mg/kg (i.p.) in a 1:2:17 ethanol:solutol:0.9% saline formulation.
as §5, §6, §7

DBA/2 mice = experiment: DBA/2 mouse audiogenic seizure test; assay type: in vivo; conditions: 180 mg/kg i.p.
Source text: The DBA/2 audiogenic seizure test, which detects anticonvulsant activity, follows that described by Dürmüller et al. (NeuroReport, vol. 4, no. 6, pages 683-686, 1993).
60 male DBA/2 mice (3-4 weeks old) were included in the experiment (weight range 8-11 g at the beginning of the experiment). Animals were acclimatized to the test facility for 1 day after delivery and randomly housed in groups of 5 in macrolon cages on wood litter with free access to food and water.
Mice were individually transferred (at 3-5 minutes intervals) from the preparation room into an adjacent experimental room and body temperature was measured using a rectal thermometer. Immediately after, they were placed in a Plexiglas jar (Diameter=40 cm; Height=35 cm) mounted with an electric bell. Upon activating the bell, the occurrences and latencies to wild running fits, clonic and tonic seizures were measured. Deaths were also recorded. The bell was activated until a tonic seizure occured or for a maximum of 60 seconds.
The experiment included 6 groups (10 mice were studied per group). Experimenters were blinded to the treatment groups.
The test substance was evaluated at 4 doses, administered i.p. (10 mL/kg) 30 or 60 minutes before the test, and compared with a vehicle control group. Doses and pre-treatment times were based on previous pharmacokinetic data.
(§8) Test compound: Compound I dissolved in 5% ethanol, 10% Kolliphor HS15, 85% physiological saline.
(§9) Vehicle control: 5% ethanol, 10% Kolliphor HS15, 85% physiological saline.
Reference: Valproate (180 mg/kg), dissolved in 5% ethanol, 10% Kolliphor HS15, 85% physiological saline.
Quantitative data (latencies) with the test substance were analyzed by comparing treated groups with vehicle control using Kruskal-Wallis test followed by Dunn's multiple comparisons test. Quantitative data with the reference substance were analyzed using Mann-Whitney U test.
Quantal data (frequencies) were analyzed by comparing treated groups with vehicle control using Fisher's Exact Probability tests.

RjOrl: Swiss mice = experiment: Mouse 6 Hz (44 mA) psychomotor seizure test; assay type: in vivo; conditions: 300 mg/kg i.p.
Source text: The 6 Hz Psychomotor Test, which detects anticonvulsant activity, follows that described by Brown et al. (J. Pharmacol. Exp. Ther. 107, 273-283, 1953).
Male RjOrl: Swiss mice, 5 weeks old, weighing 28-38 g at the beginning of the experiment. Animals were acclimatized to the test facility for at least 5 days after delivery and randomly housed in groups of 3-4 in macrolon cages on wood litter with free access to food and water.
Before transcorneal stimulation, a drop of tetracaine solution (2%) was applied on each eye of the mouse for local anesthesia. Between 1-10 minutes later, at the pre-treatment time specified for the test compound, the mice were administered a rectangular current (44 mA, rectangular pulse: 0.2 ms pulse width, 3 s duration, 6 Hz) via corneal electrodes connected to a constant current shock generator.
The number of seizures as reflected by forelimb clonus were recorded immediately after current administration. Forelimb clonus was scored as absent (0=no forelimb clonus), mild (1=clonus with one forelimb) and strong (2=clonus with both forelimbs).
[…] The experimenters were blinded to the treatment. The cages were randomly assigned to a treatment code, each designating one treatment group.
Compound I was administered intraperitoneally at 20 and 50 mg/kg, 30 minutes before the test, and at 100 and 200 mg/kg, 60 minutes before the test and were compared with the vehicle control (5% ethanol, 10% […], 85% physiological saline).
Valproate (300 mg/kg i.p.), administered 30 minutes before the test, was used as reference substance and was compared with the vehicle control (5% ethanol, 10% Kolliphor HS15, 85% physiological saline).
as §8, §9
Reference: Valproate (300 mg/kg), dissolved in 5% ethanol, 10% Kolliphor HS15, 85% physiological saline.
Data were assumed to be non-normally distributed based on validation data, therefore non-parametric tests were utilized. Quantitative data (scores) with the test substance were analyzed by comparing treated groups with the corresponding vehicle control using Kruskal-Wallis test with Dunn's multiple comparisons test when the Kruskal-Wallis Test was significant. Quantitative data with the reference substance was analysed using Mann-Whitney U test.

[3] = 30 min before the test, bell maximum 60 seconds
[4] = 30 min before the test, listed as valproate

## CN1C(=O)CN=C(c2ccccc2)c2cc(Cl)ccc21 [Diazepam, diazepam, reference compound]
[1]
  % change from vehicle (CC50): 449%
[2]
  % change from vehicle (CC50): 279%

## CCCC(CCC)C(=O)O [Valproate, reference compound]
DBA/2 mice
  Adverse signs: No adverse signs were noted
DBA/2 mice; 30 min before the test
  Clonic convulsion, Presence, %: 0%
  Clonic convulsion, Presence, Compared with Vehicle (i.p.) %: −100%
  Clonic convulsion, Presence, Total: 0/10
  Death, Presence, %: 0%
  Death, Presence, Compared with Vehicle (i.p.) %: −100%
  Death, Presence, Total: 0/10
  Tonic extension, Presence, %: 0%
  Tonic extension, Presence, Compared with Vehicle (i.p.) %: −100%
  Tonic extension, Presence, Total: 0/10
  Wild running, Presence, %: 0%
  Wild running, Presence, Compared with Vehicle (i.p.) %: −100%
  Wild running, Presence, Total: 0/10
DBA/2 mice; [3]
  Clonic convulsion, Latency (s) Median: 60.0 s
  Tonic extension, Latency (s) Median: 60.0 s
  Wild running, Latency (s) Median: 60.0 s
DBA/2 mice; [4]
  Clonic convulsion, Presence, Compared with Vehicle (i.p.) %: −100%
  Tonic extension, Presence, Compared with Vehicle (i.p.) %: −100%
  Wild running, Presence, Compared with Vehicle (i.p.) %: −100%
RjOrl: Swiss mice
  Slight sedation (mice affected): One mouse out of the 15 tested
RjOrl: Swiss mice; 30 minutes before the test
  Forelimb clonus, Compared with Vehicle B (i.p.) %: −88%
RjOrl: Swiss mice; 30 minutes before the test, listed as valproate
  Forelimb clonus, Compared with Vehicle B (i.p.) %: −88%
RjOrl: Swiss mice; 30 minutes before the test, score 0-2
  Forelimb clonus (mean ± s.e.m.): 0.1 ± 0.1
